Measurements from patent US20260209297A1, “ANTIMICROBIAL PEPTIDES AND MODIFICATIONS THEREOF” (priority 2022, published 2026).
In brackets after ≈: the same amount, converted by molar mass. Positions of bridges follow the written chain, without caps; N, C: chain ends. Non-standard residues stand in square brackets, D forms with d. Residues, ends and D or L forms follow the SMILES beside them. Dab = NCC[C@H](N)C(=O)O

Key:
B. cinerea [1] = experiment: Semi-in planta gray mold assay on detached Nicotiana benthamiana leaves (drop inoculation); type: in vivo, Botrytis cinerea; conditions: for reducing gray mold disease symptoms (lesion sizes): detached N. benthamiana leaves, 1.5 μM, 3 μM and 6 μM, 48 h
Alternaria alternata = experiment: 96-well plate MIC assay with resazurin viability; type: cell-based; conditions: Table 19; unit not given (peptide concentrations in μM)
Cercospora sojina = experiment: 96-well plate MIC assay with resazurin viability; type: cell-based; conditions: Table 19; unit not given (peptide concentrations in μM)
[2] = system: Colletotrichum gloeosporioides; experiment: 96-well plate MIC assay with resazurin viability; type: cell-based; conditions: Table 19; unit not given (peptide concentrations in μM)
Botrytis cinerea T-4 = conditions: Table 18
B. cinerea [3] = experiment: MIC antifungal assay in SFM culture media (with or without added salts); type: cell-based, Botrytis cinerea; conditions: for antifungal activity relative to the wild-type GMA4C_AC control, B. cinerea: in vitro, low cationic conditions
F. graminearum = type: cell-based, Fusarium graminearum; conditions: in vitro, low cationic conditions
F. oxysporum = experiment: MIC antifungal assay in SFM culture media; type: cell-based; conditions: in vitro, low cationic conditions
P. capsici = experiment: MIC antifungal assay in SFM culture media; type: cell-based; conditions: in vitro, low cationic conditions

SMILES	reducing gray mold disease symptoms (lesion sizes) (B. cinerea [1])	MIC Alternaria alternata (Alternaria alternata)	MIC Cercospora sojina (Cercospora sojina)	MIC Colletotrichum gloeosporioides [2]	MIC (μM) SFM (Botrytis cinerea T-4)	MIC (μM) (SFM + 2 mM CaCl2) (Botrytis cinerea T-4)	MIC (μM) (SFM + 100 mM NaCl) (Botrytis cinerea T-4)	fungal growth inhibition at 6 μM (B. cinerea [3]; B. cinerea, in presence of 2 mM CaCl2, 6 μM)	potency of activity relative to GMA4C_AC (B. cinerea [3]; B. cinerea, in presence of 100 mM NaCl or 100 mM KCl)	antifungal activity relative to the wild-type GMA4C_AC control, B. cinerea (B. cinerea [3])	antifungal activity relative to the wild-type GMA4C_AC control, F. graminearum (F. graminearum)	antifungal activity relative to the wild-type GMA4C_AC control, F. oxysporum (F. oxysporum)	antifungal activity relative to the wild-type GMA4C_AC control, P. capsici (P. capsici)	reducing the symptoms of gray mold, comparison (B. cinerea [1]; low concentrations of 1.5 μM and 3 μM, compared with GMA4C_V9)	MIC (μM) (SFM + 100 mM KCl) (Botrytis cinerea T-4)
CC[C@H](C)[C@@H]1NC(=O)[C@H](CCCNC(=N)N)NC(=O)[C@H]([C@@H](C)O)NC(=O)[C@H](Cc2ccccc2)NC(=O)[C@H](Cc2c[nH]c3ccccc23)NC(=O)[C@H](Cc2ccccc2)NC(=O)[C@H](CCCNC(=N)N)NC(=O)[C@H](CCCNC(=N)N)NC(=O)[C@H](CC(C)C)NC(=O)[C@H](Cc2ccccc2)NC(=O)CNC(=O)[C@H](CCCCN)NC(=O)[C@@H](NC(=O)[C@H](CCCNC(=N)N)NC(=O)CNC(=O)CN)CSSC[C@@H](C(N)=O)NC1=O [GMA4C_V9] (H-GGRCKGFLRRFWFTRIC-NH2; disulfide 4-17; N-terminus assumed)	effective	>12	6	>12	3 µM (≈ 6.3 µg/mL)	12 µM	3 µM								
N=C(N)NCCC[C@H](NC(=O)CNC(=O)[C@@H](N)Cc1ccccc1)C(=O)N[C@@H](CS)C(=O)N[C@@H](CCCNC(=N)N)C(=O)NCC(=O)N[C@@H](Cc1ccccc1)C(=O)N[C@@H](CCCNC(=N)N)C(=O)N[C@@H](CCCNC(=N)N)C(=O)N[C@@H](CCCNC(=N)N)C(=O)N[C@@H](CS)C(=O)N[C@@H](Cc1ccccc1)C(=O)N[C@@H](CS)C(=O)N[C@@H](Cc1c[nH]c2ccccc12)C(=O)N[C@@H](CCCNC(=N)N)C(=O)N[C@@H](Cc1c[nH]c2ccccc12)C(=O)N[C@@H](CS)C(N)=O [GMA4C_V4A] (H-FGRCRGFRRRCFCWRWC-NH2; N-terminus assumed)								inhibit fungal growth	2 fold	equivalent	equivalent	equivalent	equivalent		
CC[C@H](C)[C@@H]1NC(=O)[C@H](CCCNC(=N)N)NC(=O)[C@H]([C@@H](C)O)NC(=O)[C@H](Cc2c[nH]c3ccccc23)NC(=O)[C@H](Cc2ccc(O)cc2)NC(=O)[C@H](Cc2c[nH]c3ccccc23)NC(=O)[C@H](CCCNC(=N)N)NC(=O)[C@H](CCCNC(=N)N)NC(=O)[C@H](CCCNC(=N)N)NC(=O)[C@H](Cc2ccccc2)NC(=O)CNC(=O)[C@H](CCCCN)NC(=O)[C@@H](NC(=O)[C@H](CCCNC(=N)N)NC(=O)CNC(=O)CN)CSSC[C@@H](C(N)=O)NC1=O [GMA4C_V10] (H-GGRCKGFRRRWYWTRIC-NH2; disulfide 4-17; N-terminus assumed)	effective	>12	6	>12	3 µM (≈ 6.6 µg/mL)	3 µM	3 µM							more effective	3 to 6 µM
NCC[C@H](NC(=O)CNC(=O)[C@@H](N)Cc1ccccc1)C(=O)N[C@@H](CS)C(=O)N[C@@H](CCN)C(=O)NCC(=O)N[C@@H](Cc1ccccc1)C(=O)N[C@@H](CCN)C(=O)N[C@@H](CCN)C(=O)N[C@@H](CCN)C(=O)N[C@@H](CS)C(=O)N[C@@H](Cc1ccccc1)C(=O)N[C@@H](CS)C(=O)N[C@@H](Cc1c[nH]c2ccccc12)C(=O)N[C@@H](CCN)C(=O)N[C@@H](Cc1c[nH]c2ccccc12)C(=O)N[C@@H](CS)C(N)=O [GMA4C_V5A, FG(Dab)C(Dab)GF(Dab)(Dab)(Dab)CFCW(Dab)WC-NH2] (H-FG[Dab]C[Dab]GF[Dab][Dab][Dab]CFCW[Dab]WC-NH2; N-terminus assumed)										equivalent	equivalent	equivalent	equivalent		
